# Measurements as given in patent US8063075B2, “Pyrrolidine ether derivatives as NK3 receptor antagonists” (Hoffmann-La Roche Inc., priority 2008, dated 2011).
# Target: T1, recombinant human NK3 receptor (Homo sapiens, UniProt P29371)
# T1 construct: expressed in transfected cells; host or cells: HEK293 cells (transient expression), membranes
# T1 sequence (P29371 1-465): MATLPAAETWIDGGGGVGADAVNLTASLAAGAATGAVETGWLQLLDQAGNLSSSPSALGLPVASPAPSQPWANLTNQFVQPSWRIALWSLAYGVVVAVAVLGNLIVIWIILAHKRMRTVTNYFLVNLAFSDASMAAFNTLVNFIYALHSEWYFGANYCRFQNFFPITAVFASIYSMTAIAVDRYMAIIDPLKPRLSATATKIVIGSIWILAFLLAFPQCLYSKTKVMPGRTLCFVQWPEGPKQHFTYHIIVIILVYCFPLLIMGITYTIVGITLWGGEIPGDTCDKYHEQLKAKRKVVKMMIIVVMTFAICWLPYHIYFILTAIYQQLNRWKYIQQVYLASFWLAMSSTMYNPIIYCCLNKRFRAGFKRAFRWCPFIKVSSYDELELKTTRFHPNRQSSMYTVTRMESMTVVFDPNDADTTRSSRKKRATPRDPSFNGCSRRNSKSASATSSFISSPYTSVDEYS
# Experiment: [3H]SR142801 competition binding assay
# Conditions: membranes from HEK293 cells transiently expressing hNK3; [3H]SR142801 at its KD; 75 min RT; read-out: Data [μM] (affinity constant Ki, hNK3 receptor binding)
# Protocol: [^3H]SR142801 Competition Binding Assay
# hNK3 receptor binding experiment were performed using [^3H]SR142801 (Catalog No. TRK1035, specific activity: 74.0 Ci/mmol, Amersham, GE Healthcare UK limited, Buckinghamshire, UK) and membrane isolated from HEK293 cells transiently expressing recombinant human NK3 receptor. After thawing, the membrane homogenates were centrifuged at 48,000×g for 10 min at 4° C., the pellets were resuspended in the 50 mM Tris-HCl, 4 mM MnCl2, 1 μM phosphoramidon, 0.1% BSA binding buffer at pH 7.4 to a final assay concentration of 5 μg protein/well. […] At the end of the incubation, membranes were filtered onto unitfilter (96-well white microplate with bonded GF/C filter preincubated 1 h in 0.3% PEI+0.3% BSA, Packard BioScience, Meriden, Conn.) with a Filtermate 196 harvester (Packard BioScience) and washed 4 times with ice-cold 50 mM Tris-HCl, pH 7.4 buffer. Nonspecific binding was measured in the presence of 10 μM SB222200 for both radioligands. The radioactivity on the filter was counted (5 min) on a Packard Top-count microplate scintillation counter with quenching correction after addition of 45 μl of microscint 40 (Can berra Packard S. A., Zürich, Switzerland) and shaking for 1 h. Inhibition curves were fitted according to the Hill equation: y=100/(1+(x/IC50)^nH), where nH=slope factor using Excel-fit 4 software (Microsoft). IC50 values were derived from the inhibition curve and the affinity constant (Ki) values were calculated using the Cheng-Prussoff equation Ki=IC50/(1+[L]/KD) where [L] is the concentration of radioligand and KD is its dissociation constant at the receptor, derived from the saturation isotherm. All experiments were performed in duplicate and the mean±standard error (SEM) of the individual Ki values was calculated.
row,Compound,Ki [µM]
1,"C[C@H](Oc1ccc(C#N)cn1)[C@H]1CN(C(=O)C2CCN(C(=O)C3(N)CC3)CC2)C[C@@H]1c1ccc(Cl)c(Cl)c1 (racemic) [Example 19, 6-{(SR)-1-[(3RS,4SR)-1-[1-(1-Amino-cyclopropanecarbonyl)-piperidine-4-carbonyl]-4-(3,4-dichloro-phenyl)-pyrrolidin-3-yl]-ethoxy}-nicotinonitrile]",0.0077
2,"C[C@H](Oc1ccc(C#N)cn1)[C@H]1CN(C(=O)[C@H]2CC[C@H](NC(=O)OC(C)(C)C)CC2)C[C@@H]1c1ccc(Cl)c(Cl)c1 (racemic) [Example 43, {4-[(3RS,4SR)-3-[(SR)-1-(5-Cyano-pyridin-2-yloxy)-ethyl]-4-(3,4-dichloro-phenyl)-pyrrolidine-1-carbonyl]-cyclohexyl}-carbamic acid tert-butyl ester]",0.007
3,"COC[C@H]1CC[C@H](C(=O)N2C[C@H]([C@H](C)Oc3ccc(Cl)cn3)[C@@H](c3ccc(Cl)c(Cl)c3)C2)CC1 (racemic) [Example 6, [(3RS,4SR)-3-[(SR)-1-(5-Chloro-pyridin-2-yloxy)-ethyl]-4-(3,4-dichloro-phenyl)-pyrrolidin-1-yl]-(4-methoxymethyl-cyclohexyl)-methanone]",0.0058
4,"CC(=O)N1CCC(C(=O)N2C[C@H]([C@H](C)Oc3ccc(C#N)cn3)[C@@H](c3ccc(Cl)c(Cl)c3)C2)CC1 (racemic) [Example 2, 6-{(SR)-1-[(3RS,4SR)-1-(1-Acetyl-piperidine-4-carbonyl)-4-(3,4-dichloro-phenyl)-pyrrolidin-3-yl]-ethoxy}-nicotinonitrile]",0.0076
5,"C[C@H](Oc1ccc(C#N)cn1)[C@H]1CN(C(=O)C2CCN(C(=O)C3CC3)CC2)C[C@@H]1c1ccc(Cl)c(Cl)c1 (racemic) [Example 14, 6-{(SR)-1-[(3RS,4SR)-1-(1-Cyclopropanecarbonyl-piperidine-4-carbonyl)-4-(3,4-dichloro-phenyl)-pyrrolidin-3-yl]-ethoxy}-nicotinonitrile]",0.0049
6,"CC(=O)N1CCC(C(=O)N2C[C@H]([C@H](C)Oc3ccc(Cl)cn3)[C@@H](c3ccc(Cl)c(Cl)c3)C2)CC1 (racemic) [Example 1, 1-{4-[(3RS,4SR)-3-[(SR)-1-(5-Chloro-pyridin-2-yloxy)-ethyl]-4-(3,4-dichloro-phenyl)-pyrrolidine-1-carbonyl]-piperidin-1-yl}-ethanone]",0.0047
7,"COC(=O)N[C@H]1CC[C@H](C(=O)N2C[C@H]([C@H](C)Oc3ccc(Cl)cn3)[C@@H](c3ccc(Cl)c(Cl)c3)C2)CC1 (racemic) [Example 5, {4-[(3RS,4SR)-3-[(SR)-1-(5-Chloro-pyridin-2-yloxy)-ethyl]-4-(3,4-dichloro-phenyl)-pyrrolidine-1-carbonyl]-cyclohexyl}-carbamic acid methyl ester]",0.0095
8,"C[C@H](Oc1ccc(Cl)cn1)[C@H]1CN(C(=O)C2CCC(=O)CC2)C[C@@H]1c1ccc(Cl)c(Cl)c1 (racemic) [Example 12, 4-[(3RS,4SR)-3-[(SR)-1-(5-Chloro-pyridin-2-yloxy)-ethyl]-4-(3,4-dichloro-phenyl)-pyrrolidine-1-carbonyl]-cyclohexanone]",0.0092

# Now from value to compound:
row,Ki [µM],Compound
1,0.0046,"C[C@H](Oc1ccc(C#N)cn1)[C@H]1CN(C(=O)C2CCN(C(=O)C3(C)CC3)CC2)C[C@@H]1c1ccc(Cl)c(Cl)c1 (racemic) [Example 17, 6-((SR)-1-{(3RS,4SR)-4-(3,4-Dichloro-phenyl)-1-[1-(1-methyl-cyclopropanecarbonyl)-piperidine-4-carbonyl]-pyrrolidin-3-yl}-ethoxy)-nicotinonitrile]"
2,0.0044,"C[C@H](Oc1ccc(C#N)cn1)[C@H]1CN(C(=O)C2CCN(C(=O)OC(C)(C)C)CC2)C[C@@H]1c1ccc(Cl)c(Cl)c1 (racemic) [Example 13, 4-[(3RS,4SR)-3-[(SR)-1-(5-Cyano-pyridin-2-yloxy)-ethyl]-4-(3,4-dichloro-phenyl)-pyrrolidine-1-carbonyl]-piperidine-1-carboxylic acid tert-butyl ester]"
3,0.004,"CC(=O)N(C)[C@H]1CC[C@H](C(=O)N2C[C@H]([C@H](C)Oc3ccc(C#N)cn3)[C@@H](c3ccc(Cl)c(Cl)c3)C2)CC1 (racemic) [Example 45, N-{4-[(3RS,4SR)-3-[(SR)-1-(5-Cyano-pyridin-2-yloxy)-ethyl]-4-(3,4-dichloro-phenyl)-pyrrolidine-1-carbonyl]-cyclohexyl}-N-methyl-acetamide]"
4,0.0036,"CCC(=O)N1CCC(C(=O)N2C[C@H]([C@H](C)Oc3ccc(C#N)cn3)[C@@H](c3ccc(Cl)c(Cl)c3)C2)CC1 (racemic) [Example 22, 6-{(SR)-1-[(3RS,4SR)-4-(3,4-Dichloro-phenyl)-1-(1-propionyl-piperidine-4-carbonyl)-pyrrolidin-3-yl]-ethoxy}-nicotinonitrile]"
5,0.0026,"C[C@H](Oc1ccc(C#N)cn1)[C@H]1CN(C(=O)C2CCN(C(=O)C3CCC3)CC2)C[C@@H]1c1ccc(Cl)c(Cl)c1 (racemic) [Example 20, 6-{(SR)-1-[(3RS,4SR)-1-(1-Cyclobutanecarbonyl-piperidine-4-carbonyl)-4-(3,4-dichloro-phenyl)-pyrrolidin-3-yl]-ethoxy}-nicotinonitrile]"
6,0.0018,"CC(=O)N1CCC(C(=O)N2C[C@H]([C@H](C)Oc3ccc(C(F)(F)F)cn3)[C@@H](c3ccc(Cl)c(Cl)c3)C2)CC1 (racemic) [Example 46, 1-(4-{(3SR,4RS)-3-(3,4-Dichloro-phenyl)-4-[(SR)-1-(5-trifluoromethyl-pyridin-2-yloxy)-ethyl]-pyrrolidine-1-carbonyl}-piperidin-1-yl)-ethanone]"
7,0.0008,"C[C@H](Oc1ccc(Cl)cn1)[C@H]1CN(C(=O)C2CCN(C(=O)C3(C)CC3)CC2)C[C@@H]1c1ccc(Cl)c(F)c1 [Example 53, {(3S,4R)-3-(4-Chloro-3-fluoro-phenyl)-4-[(S)-1-(5-chloro-pyridin-2-yloxy)-ethyl]-pyrrolidin-1-yl}-[1-(1-methyl-cyclopropanecarbonyl)-piperidin-4-yl]-methanone]"

# Tested on: not given
# Experiment: not given
# Conditions: phase II trial; altered behaviour, delusion, hallucinations, extreme emotions, excited motor activity, incoherent speech; cited from earlier work
row,Compound,activity on positive symptoms of schizophrenia
1,"CC(=O)N(C)C1(c2ccccc2)CCN(CCC[C@]2(c3ccc(Cl)c(Cl)c3)CCCN(C(=O)c3ccccc3)C2)CC1 [SR 142,801, Osanetant]",active

# Same assay, conditions: phase II trial; depression, anhedonia, social isolation or memory and attention deficits; cited from earlier work
row,Compound,activity in the treatment of negative symptoms
1,"CC(=O)N(C)C1(c2ccccc2)CCN(CCC[C@]2(c3ccc(Cl)c(Cl)c3)CCCN(C(=O)c3ccccc3)C2)CC1 [SR 142,801, Osanetant]",inactive
